Source: article PMC7251097, “Aspartate/asparagine-β-hydroxylase: a high-throughput mass spectrometric assay for discovery of small molecule inhibitors” (Scientific Reports, 2020)
Counter-ions that a name gives are not always drawn. Like-named read-outs stand apart in the source and are kept apart here. Blank lines part the entries; values can stand above or below the compound they belong to.

Target: T1, His6-AspH315–758 (human aspartate/asparagine-β-hydroxylase, AspH) (Homo sapiens, UniProt Q12797)
T1 construct: N-Terminally His6-tagged human AspH315–758 (His6-AspH315–758) was produced in E. coli BL21 (DE3) cells; made in house; host or cells: E. coli BL21 (DE3), pET-28a(+) vector
T1 sequence (Q12797 315-758): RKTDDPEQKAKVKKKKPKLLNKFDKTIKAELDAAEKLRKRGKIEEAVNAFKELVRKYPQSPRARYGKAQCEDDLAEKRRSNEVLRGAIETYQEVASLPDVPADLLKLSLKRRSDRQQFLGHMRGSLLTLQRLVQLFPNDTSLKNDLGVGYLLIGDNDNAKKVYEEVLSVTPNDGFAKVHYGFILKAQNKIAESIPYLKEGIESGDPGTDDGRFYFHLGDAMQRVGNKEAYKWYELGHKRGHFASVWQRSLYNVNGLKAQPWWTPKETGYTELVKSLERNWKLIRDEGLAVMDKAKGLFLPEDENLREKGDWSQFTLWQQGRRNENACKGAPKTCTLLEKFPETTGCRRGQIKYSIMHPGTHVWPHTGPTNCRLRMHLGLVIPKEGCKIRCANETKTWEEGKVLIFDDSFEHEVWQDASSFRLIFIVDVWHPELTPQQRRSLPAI
Assay: SPE-MS AspH inhibition assay (LOPAC screen at fixed 20 μM and IC50 dose-response), hydroxylation of cyclic peptide hFX-CP101–119
Format: biochemical
Conditions: for Plate 5 (% conversion): mean conversion DMSO 32.88; for % inhibition / % conversion: LOPAC Plate 4, compound at 20 uM

[1] = LOPAC compound at 20uM, plate 2, conversion of substrate peptide
[2] = LOPAC compound at 20uM, plate 2, normalised to DMSO and 2,4-PDCA controls, read-out: Plate 2 (% inhibition)
[3] = LOPAC compound at 20uM, plate 2, normalised to DMSO and 2,4-PDCA controls
[4] = read-out: Plate 2 (% inhibition)
[5] = plate 5 (Pfitzer), test compounds at fixed 20 μM
[6] = LOPAC compound at 20uM, conversion of substrate peptide

IC50 (IC50 [μM]): 16.3 ± 0.44 µM
SMILES: O=C(O)CNC(=O)c1c(O)c2ccccc2n(OCC2CC2)c1=O [Desidustat, desidustat, reference compound]

Plate 2 (% conversion) [1]: 40.94%
inhibition at 20 µM [2]: -14.9%
SMILES: CNCCCN1c2ccccc2CCc2ccccc21 [Desipramine hydrochloride]

Plate 2 (% conversion) [1]: 21.33%
inhibition at 20 µM [2]: 43.7%
SMILES: O=c1c2ccccc2[nH]c(=S)n1CCN1CCC(=C(c2ccc(F)cc2)c2ccc(F)cc2)CC1 [Diacylglycerol Kinase Inhibitor II]

Plate 2 (% conversion) [1]: 32.33%
inhibition at 20 µM [2]: 10.8%
SMILES: O=C(O)Cc1ccccc1Nc1c(Cl)cccc1Cl [Diclofenac sodium]

inhibition at 20 µM [2]: -7.73%
SMILES: CN(C)CCOC(c1ccccc1)c1ccccc1 [Diphenhydramine hydrochloride]

Plate 2 (% conversion) [1]: 8.47%
inhibition at 20 µM [2]: 82.1%
SMILES: CC(CCc1ccc(O)cc1)NCCc1ccc(O)c(O)c1 (stereo not drawn) [Dobutamine hydrochloride]

inhibition at 20 µM [2]: -3.76%
Plate 5 (% inhibition) [5]: -1.04%
Plate 5 (% conversion) [5]: 36.67%
SMILES: CN(CCOc1ccc(NS(C)(=O)=O)cc1)CCc1ccc(NS(C)(=O)=O)cc1 [Dofetilide]

Plate 1 (% inhibition) (LOPAC compound at fixed 20 uM, plate 1, normalised to DMSO and 2,4-PDCA controls): 1.86%
Plate 1 (% conversion) (LOPAC compound at fixed 20 uM, substrate conversion, plate 1): 35.25%
SMILES: Cc1cc(Cl)ccc1OCCCC(=O)NO [Droxinostat]

% conversion (substrate conversion): 36.52%
Plate 5 (% inhibition) [5]: 19.44%
Plate 5 (% conversion) [5]: 29.70%
SMILES: CCOC(=O)C1=C(O)C(=O)N(Cc2ccccc2)C1 [EBPC]

Plate 5 (% inhibition) [5]: 30.36%
Plate 5 (% conversion) [5]: 25.98%
SMILES: C=Cc1cc(O)cc2nc(-c3ccc(O)c(F)c3)oc12 [ERB-041]

IC50 (50 nM His6-AspH315–758, 1.0 μM hFX-CP101–119, 3 μM 2OG, 2 μM Fe(II), 50 mM HEPES pH 7.5, 20 °C, mean ± SD, n = 2 (2,4-PDCA n = 10), read-out: IC50): 0.12 ± 0.01 µM
SMILES: O=c1c2ccccc2[se]n1-c1ccccc1 [Ebselen, ebselen, reference compound]

Plate 2 (% conversion) [1]: 34.90%
inhibition at 20 µM [2]: 3.14%
SMILES: CCC1(C2=NCCN2)Cc2ccccc2O1 (stereo not drawn) [Efaroxan hydrochloride]

Plate 5 (% inhibition) [5]: 0.46%
Plate 5 (% conversion) [5]: 36.16%
SMILES: CN1CCC[C@@H]1Cc1c[nH]c2ccc(CCS(=O)(=O)c3ccccc3)cc12 [Eletriptan]

Plate 2 (% conversion) [1]: 39.73%
inhibition at 20 µM [2]: -11.3%
SMILES: OC(CN1CCC(Cc2ccc(F)cc2)CC1)c1ccc(Cl)cc1 (stereo not drawn) [Eliprodil]

% conversion (substrate conversion): 37.37%
SMILES: C[C@H](N[C@@H](CCc1ccccc1)C(=O)O)C(=O)N1CCC[C@H]1C(=O)O.O.O [Enalaprilat dihydrate]

Plate 2 (% conversion) [1]: 35.33%
inhibition at 20 µM [2]: 1.86%
SMILES: CC(C)C[C@H](NC(=O)[C@H](O)[C@H](N)Cc1ccccc1)C(=O)O [Epibestatin hydrochloride]

Plate 3 (% conversion) [6]: 33.79%
SMILES: CCCCc1ncc(/C=C(\Cc2cccs2)C(=O)O)n1Cc1ccc(C(=O)O)cc1 [Eprosartan mesylate]

Plate 2 (% conversion) [1]: 36.91%
inhibition at 20 µM [2]: -2.84%
SMILES: CCc1cccc2c3c([nH]c12)C(CC)(CC(=O)O)OCC3 (stereo not drawn) [Etodolac]

% inhibition: -8.79%
% conversion (substrate conversion): 39.47%
SMILES: Clc1ccc(N2CCN(Cc3cc4ccccn4n3)CC2)cc1 [FAUC 213]

Plate 2 (% conversion) [1]: 38.85%
Plate 2 (% inhibition) [3]: -8.64%
SMILES: COC(=O)c1c(C)[nH]c(C)c1C(=O)c1ccccc1Cc1ccccc1 [FPL 64176]

Plate 2 (% conversion) [1]: 34.68%
inhibition at 20 µM [2]: 3.82%
SMILES: NC(=O)OCC(COC(N)=O)c1ccccc1 [Felbamate]

Plate 3 (% conversion) [6]: 36.37%
SMILES: CN1CC(=O)NC1=NC(=O)Nc1cccc(Cl)c1 [Fenobam]

inhibition at 20 µM (AspH activity, fixed compound concentration 20 μM, initial LOPAC screen, 0.5%v/v DMSO, read-out: Inhibition at 20 µM [%]): 98.3%
Plate 2 (% conversion) [1]: 3.05%
inhibition at 20 µM [2]: 98.3%
SMILES: Oc1ccc(C2CNCCc3c2cc(O)c(O)c3Cl)cc1 (stereo not drawn) [Fenoldopam bromide, reference compound]

Plate 2 (% conversion) [1]: 64.73%
inhibition at 20 µM [2]: -85.9%
SMILES: COc1cccc2c1[C@@H]1CN(CCCCn3c(=O)[nH]c4c(sc5ncc(-c6ccccc6)nc54)c3=O)C[C@@H]1CO2 [Fiduxosin hydrochloride]

Plate 2 (% conversion) [1]: 46.32%
inhibition at 20 µM [2]: -31%
SMILES: Fc1ccc(C(c2ccc(F)cc2)N2CCN(C/C=C/c3ccccc3)CC2)cc1 [Flunarizine dihydrochloride]

Plate 2 (% conversion) [1]: 43.85%
inhibition at 20 µM [2]: -23.6%
SMILES: CNCCC(Oc1ccc(C(F)(F)F)cc1)c1ccccc1 (stereo not drawn) [Fluoxetine hydrochloride]

Further lines, the compound ahead of its results:

SMILES: O=C(O)CN(CCN(CC(=O)O)CC(=O)O)CCN(CC(=O)O)CC(=O)O [Diethylenetriaminepentaacetic acid, reference compound]
Inhibition at 20 µM [%] (AspH activity, fixed compound concentration 20 μM, initial LOPAC screen, 0.5%v/v DMSO): 100.3%
Plate 2 (% conversion) [1]: 2.39%
Plate 2 (% inhibition) [3]: 100.26%

SMILES: CN1C[C@H](C(=O)N[C@]2(C)O[C@@]3(O)[C@@H]4CCCN4C(=O)[C@H](Cc4ccccc4)N3C2=O)C[C@@H]2c3cccc4[nH]cc(c34)C[C@H]21 [Dihydroergotamine methanesulfonate]
Plate 2 (% conversion): 37.10%
inhibition at 20 µM [4]: -3.42%

SMILES: CC(C)[C@H]1CN[C@H](C(=O)O)[C@H]1CC(=O)O [Dihydrokainic acid]
Plate 2 (% conversion): 34.38%
Plate 2 (% inhibition) (20 µM): 4.72%

SMILES: C[C@@H]1O[C@@H](O[C@H]2C[C@@H](O)[C@]3(CO)[C@H]4[C@H](O)C[C@]5(C)[C@@H]([C@@H]6COC(=O)C6)CC[C@]5(O)[C@@H]4CC[C@]3(O)C2)[C@H](O)[C@H](O)[C@H]1O [Dihydroouabain]
Plate 2 (% conversion): 38.16%
Plate 2 (% inhibition) (20 µM): -6.59%

SMILES: COc1cc(C(=O)OCCCN2CCCN(CCCOC(=O)c3cc(OC)c(OC)c(OC)c3)CC2)cc(OC)c1OC [Dilazep hydrochloride]
Plate 2 (% conversion) [1]: 41.49%
inhibition at 20 µM [2]: -16.5%

SMILES: c1ccc2c(c1)[I+]c1ccccc1-2 [Diphenyleneiodonium chloride]
Plate 2 (% conversion): 35.66%
inhibition at 20 µM [4]: 0.88%

SMILES: CCCN(CCC)CCc1ccc(O)c(O)c1 [Dipropyldopamine hydrobromide]
Plate 2 (% conversion): 10.27%
inhibition at 20 µM [4]: 76.7%

SMILES: OCCN(CCO)c1nc(N2CCCCC2)c2nc(N(CCO)CCO)nc(N3CCCCC3)c2n1 [Dipyridamole]
Plate 2 (% conversion) [1]: 42.60%
inhibition at 20 µM [2]: -19.9%

SMILES: CS(=O)(=O)O.O.O=C(OC1C[C@@H]2CC3C[C@H](C1)N2CC3=O)c1c[nH]c2ccccc12 (stereo partly drawn) [Dolasetron mesylate hydrate]
% inhibition: -4.53%
% conversion (substrate conversion): 38.02%

SMILES: Cl.N#Cc1ccc(N2CCN(C(=O)COc3ccc4[nH]cc(CCN)c4c3)CC2)cc1 [Donitriptan monohydrochloride]
Plate 2 (% conversion) [1]: 23.20%
Plate 2 (% inhibition) [3]: 38.09%

SMILES: COc1cc2nc(N3CCN(C(=O)C4COc5ccccc5O4)CC3)nc(N)c2cc1OC (stereo not drawn) [Doxazosin mesylate]
Plate 2 (% conversion) [1]: 41.90%
inhibition at 20 µM [2]: -17.8%

SMILES: O=C(O)CN(CCOCCOCCN(CC(=O)O)CC(=O)O)CC(=O)O [EGTA]
Plate 2 (% conversion) [1]: 38.29%
Plate 2 (% inhibition) [3]: -6.96%

SMILES: CC[N+](C)(C)c1cccc(O)c1 [Edrophonium chloride]
Plate 2 (% conversion): 37.54%
inhibition at 20 µM [4]: -4.75%

SMILES: Cc1c2ccncc2c(C)c2c1[nH]c1ccccc12 [Ellipticine]
Plate 2 (% conversion): 45.95%
inhibition at 20 µM [2]: -29.9%

SMILES: CC[C@H]1CN2CCc3cc(OC)c(OC)cc3[C@@H]2C[C@@H]1C[C@H]1NCCc2cc(OC)c(OC)cc21 [Emetine dihydrochloride hydrate]
Plate 2 (% conversion): 37.46%
inhibition at 20 µM [4]: -4.49%

SMILES: Cc1cc(O)c2c(c1)C(=O)c1cc(O)cc(O)c1C2=O [Emodin]
Plate 2 (% conversion): 37.82%
inhibition at 20 µM [2]: -5.58%

SMILES: COc1ccc2[n-]c([S@@+]([O-])Cc3ncc(C)c(OC)c3C)nc2c1.COc1ccc2[n-]c([S@@+]([O-])Cc3ncc(C)c(OC)c3C)nc2c1.O.O.[Mg+2] [Esomeprazole magnesium dihydrate]
Plate 2 (% conversion) [1]: 41.52%
Plate 2 (% inhibition) [3]: -16.62%

SMILES: C[C@]12CC[C@@H]3c4ccc(O)cc4CC[C@H]3[C@@H]1CCC2=O [Estrone]
Plate 2 (% conversion): 37.75%
inhibition at 20 µM [2]: -5.35%

SMILES: CCOC(=O)c1cnc2c(cnn2CC)c1NN=C(C)C [Etazolate hydrochloride]
Plate 2 (% conversion) [1]: 58.51%
inhibition at 20 µM [2]: -67.4%

SMILES: CCC1(C)CC(=O)NC1=O (stereo not drawn) [Ethosuximide]
Plate 2 (% conversion) [1]: 37.85%
inhibition at 20 µM [2]: -5.65%

SMILES: C=C1C[C@@H]2[C@H](CC[C@]3(C)C(=O)CC[C@@H]23)[C@@]2(C)C=CC(=O)C=C12 [Exemestane]
Plate 5 (% inhibition): 2.56%
Plate 5 (% conversion) [5]: 35.45%

SMILES: CC(Cc1ccc(O)cc1)NCC(O)c1cc(O)cc(O)c1 (stereo not drawn) [Fenoterol hydrobromide]
Plate 2 (% conversion): 38.93%
inhibition at 20 µM [4]: -8.89%

SMILES: OCCN1CCN(CCCN2c3ccccc3Sc3ccc(C(F)(F)F)cc32)CC1 [Fluphenazine dihydrochloride]
Plate 2 (% conversion): 63.32%
inhibition at 20 µM [2]: -81.7%
